Data: paper PMC3841161, “De Novo Design and Synthesis of Ultra-Short Peptidomimetic Antibiotics Having Dual Antimicrobial and Anti-Inflammatory Activities” (PLoS ONE, 2013)
Residues, ends and D or L forms follow the SMILES beside them. No end group written: not given here.

Tests used:
trypsin [1] = assay: Protease stability by RP HPLC; type: in vitro ADME; details: 5 µL of 10 mg/mL peptide in 25 µL of 0.2-µg/mL trypsin in PBS, 37°C, 0, 0.5, 1.0, 2.0 and 4 h; C18 RP-HPLC, 224 nm
Method: Five microliters of an aqueous peptide stock solution (10 mg/mL) were added to 25 µL of the 0.2-µg/mL trypsin solution in PBS, respectively, and incubated at 37°C for 0, 0.5, 1.0, 2.0, and 4 h. The 5-µL solution was taken out at each time interval and immediately frozen with liquid nitrogen. Individually thawed samples were loaded onto a C18 reverse-phase column for HPLC analysis (5 µm; 4.6 mm ×250 mm; Vydac). Peptides were eluted by a 60-min linear gradient of 0–90% (v/v) acetonitrile in water containing 0.05% (v/v) trifluoroacetic acid with a flow rate of 1 mL/min and detection of 224 nm.

[2] = system: four bacterial strains (E. coli, P. aeruginosa, S. epidermidis, S. aureus); type: cell-based; details: 20 h
Method: (§1) The prokaryotic selectivity of our designed HDAMPs is defined by the therapeutic index (TI) as a measure of the relative safety of the drug. It is a measure of a peptide's capability to differentiate any pathogen from a host cell. The TI value of each peptide was calculated as the ratio of the HC10 (the peptide concentration that produces 10% hemolysis toward hRBCs) to the geometric mean [GM; the geometric mean of the minimal inhibitory concentration (MIC) against four selected bacterial strains]. Larger values of TI correspond to greater prokaryotic selectivity.
(§2) The antimicrobial activity of the peptides against two Gram-positive bacterial strains and two Gram-negative bacterial strains was examined using the broth microdilution method in sterile 96-well plates. Aliquots (100 µL) of a bacterial suspension at 2×10^6 colony-forming units (CFU)/mL in 1% peptone were added to 100 µL of the peptide solution (serial two-fold dilutions in 1% peptone). After incubation for 18−20 h at 37°C, bacterial growth inhibition was determined by measuring the absorbance at 600 nm with a Microplate Autoreader EL 800 (Bio-Tek Instruments, VT). The minimal inhibitory concentration (MIC) was defined as the minimum peptide concentration inhibited bacteria growth. Two types of Gram-positive bacteria (S. epidermidis [KCTC 1917] and S. aureus [KCTC 1621]) and two types of Gram-negative bacteria (E. coli [KCTC 1682] and P. aeruginosa [KCTC 1637]) were procured from the Korean Collection for Type Cultures (KCTC) at the Korea Research Institute of Bioscience and Biotechnology (KRIBB). MRSA samples (CCARM 3089, CCARM 3090, and CCARM 3095) were obtained from the Culture Collection of Antibiotic-Resistant Microbes (CCARM) at Seoul Women's University (Seoul, Korea).

[3] = system: hRBCs versus four bacterial strains; assay: Prokaryotic selectivity (therapeutic index, HC10/GM); details: ratio of HC10 to GM; 512 µg/mL used for HC10 >256 and 128 µg/mL for MIC >64
Method: as §1

[4] = system: P. aeruginosa [KCTC 1637]; type: cell-based, Pseudomonas aeruginosa; details: KCTC 1637, 20 h
Method: as §2

E. coli [KCTC 1682] = type: cell-based, Escherichia coli; details: KCTC 1682, 20 h
Method: as §2

[5] = system: S. epidermidis [KCTC 1917]; type: cell-based, Staphylococcus epidermidis; details: KCTC 1917, 20 h
Method: as §2

MRSA 1 [CCARM 3089] = type: cell-based, methicillin-resistant Staphylococcus aureus; details: CCARM 3089, 20 h
Method: as §2

MRSA 3 [CCARM 3095] = type: cell-based, methicillin-resistant Staphylococcus aureus; details: CCARM 3095, 20 h
Method: as §2

MRSA 2 [CCARM 3090] = type: cell-based, methicillin-resistant Staphylococcus aureus; details: CCARM 3090, 20 h
Method: as §2

S. aureus [KCTC 1621] = type: cell-based, Staphylococcus aureus; details: KCTC 1621, 20 h
Method: as §2

trypsin [6] = assay: Protease stability by radial diffusion assay; type: in vitro ADME; details: 5 µL of 10 mg/mL peptide in 25 µL of 0.2-µg/mL trypsin in PBS, 37°C, text: 24 h, method: 6 h
Method: E. coli (KCTC 1682) was grown overnight for 18 h at 37°C in 10 mL of LB broth, and then 10 µl of this culture was inoculated into 10 mL of fresh LB and incubated for an additional 3 h at 37°C to obtain mid-logarithmic-phase organisms. For the radial diffusion assay method, a bacteria suspension (2×10^6 CFU/mL in LB) was mixed with 0.7% agarose. The mixture was poured into a 10-cm petri dish after rapidly dispersing. Five microliters of an aqueous peptide stock solution (10 mg/mL) were added to 25 µL of the 0.2-µg/mL trypsin solution in PBS, respectively, and incubated at 37°C for 6 h. The reaction was stopped by freezing with liquid nitrogen, and then 10-µL aliquots were placed in each circle paper (≈6 mm in diameter) put on the agarose plates and then incubated at 37°C overnight. The diameters of the bacterial clearance zones surrounding the circle paper were measured for the quantitation of inhibitory activities.

Row | Compound | resistance to proteolysis by trypsin, remaining peptide by RP-HPLC (in words) (trypsin [1]) | GM, geometric mean of the MIC values against four bacterial strains [2] | TI (HC10/GM), therapeutic index [3] | Minimal Inhibitory Concentration (MIC) P. aeruginosa [KCTC 1637] [4] | Minimal Inhibitory Concentration (MIC) E. coli [KCTC 1682] (E. coli [KCTC 1682]) | Minimal Inhibitory Concentration (MIC) S. epidermidis [KCTC 1917] [5] | Minimal Inhibitory Concentration (MIC) MRSA 1 [CCARM 3089] (MRSA 1 [CCARM 3089]) | Minimal Inhibitory Concentration (MIC) MRSA 3 [CCARM 3095] (MRSA 3 [CCARM 3095]) | Minimal Inhibitory Concentration (MIC) MRSA 2 [CCARM 3090] (MRSA 2 [CCARM 3090]) | Minimal Inhibitory Concentration (MIC) S. aureus [KCTC 1621] (S. aureus [KCTC 1621]) | antimicrobial activity against E. coli (KCTC 1682) in the presence of trypsin (in words) (trypsin [6])
1 | N=C(N)NCCC[C@H](NC(=O)[C@H](Cc1c[n+](CCCCCCCc2ccccc2)cn1CCCCCCCc1ccccc1)NC(=O)[C@@H](N)CCCNC(=N)N)C(N)=O [HDAMP-1, Arg-His((CH2)7C6H5)2-Arg-NH2] | fully resistant | 3.5 (4.3) µg/mL | 10.3 | 4 (4.9) µg/mL | 4 (4.9) µg/mL | 2 (2.5) µg/mL | 2 (2.5) µg/mL | 2 (2.5) µg/mL | 2 (2.5) µg/mL | 4 (4.9) µg/mL | –
2 | N=C(N)NCCC[C@H](NC(=O)[C@H](Cc1c[n+](CCCc2ccccc2)cn1CCCc1ccccc1)NC(=O)[C@@H](N)CCCNC(=N)N)C(N)=O [HDAMP-2] | – | 9 (12.8) µg/mL | 56.9 | 16 (22.7) µg/mL | 4 (5.7) µg/mL | 8 (11.4) µg/mL | 16 (22.7) µg/mL | 16 (22.7) µg/mL | 32 (45.5) µg/mL | 8 (11.4) µg/mL | –
3 | N=C(N)NCCC[C@H](NC(=O)[C@@H](N)Cc1c[n+](CCCCCCCc2ccccc2)cn1CCCCCCCc1ccccc1)C(N)=O [HDAMP-3] | fully resistant | 3 (4.6). µg/mL | 6.3 | 4 (6.1) µg/mL | 4 (6.1) µg/mL | 2 (3) µg/mL | 2 (3) µg/mL | 2 (3) µg/mL | 2 (3) µg/mL | 2 (3) µg/mL | –
4 | N=C(N)NCCC[C@H](NC(=O)[C@H](Cc1cncn1CCCCCCCc1ccccc1)NC(=O)[C@@H](N)CCCNC(=N)N)C(N)=O [HDAMP-4] | – | 17.5 (27.3) µg/mL | 29.3 | 32 (49.9) µg/mL | 32 (49.9) µg/mL | 2 (3.1) µg/mL | 16 (24.9) µg/mL | 16 (24.9) µg/mL | 16 (24.9) µg/mL | 4 (6.2) µg/mL | –
5 | N=C(N)NCCC[C@@H](N)C(=O)N[C@@H](Cc1c[n+](CCCCCCCc2ccccc2)cn1CCCCCCCc1ccccc1)C(=O)N[C@H](CCCNC(=N)N)C(N)=O [HDAMP-5] | fully resistant | 12.0 (14.7) µg/mL | 10.8 | 16 (19.6) µg/mL | 16 (19.6) µg/mL | 8 (9.8) µg/mL | 8 (9.8) µg/mL | 8 (9.8) µg/mL | 8 (9.8) µg/mL | 8 (9.8) µg/mL | –
6 | N=C(N)NCCC[C@@H](NC(=O)[C@@H](N)Cc1c[n+](CCCCCCCc2ccccc2)cn1CCCCCCCc1ccccc1)C(N)=O [HDAMP-6] | fully resistant | 3.5 (5.3) µg/mL | 8 | 4 (6.1) µg/mL | 4 (6.1) µg/mL | 4 (6.1) µg/mL | 2 (3) µg/mL | 2 (3) µg/mL | 2 (3) µg/mL | 2 (3) µg/mL | –
7 | CC[C@H](C)[C@H](NC(=O)[C@H](CCCCN)NC(=O)[C@H](CCC(=O)O)NC(=O)[C@H](CCCCN)NC(=O)[C@H](CO)NC(=O)[C@H](CCCCN)NC(=O)[C@H](CCCNC(=N)N)NC(=O)[C@H](Cc1ccccc1)NC(=O)[C@H](Cc1ccccc1)NC(=O)[C@H](CC(=O)O)NC(=O)CNC(=O)[C@H](CC(C)C)NC(=O)[C@@H](N)CC(C)C)C(=O)NCC(=O)N[C@@H](CCCCN)C(=O)N[C@@H](CCC(=O)O)C(=O)N[C@@H](Cc1ccccc1)C(=O)N[C@@H](CCCCN)C(=O)N[C@@H](CCCNC(=N)N)C(=O)N[C@H](C(=O)N[C@H](C(=O)N[C@@H](CCC(N)=O)C(=O)N[C@@H](CCCNC(=N)N)C(=O)N[C@H](C(=O)N[C@@H](CCCCN)C(=O)N[C@@H](CC(=O)O)C(=O)N[C@@H](Cc1ccccc1)C(=O)N[C@@H](CC(C)C)C(=O)N[C@@H](CCCNC(=N)N)C(=O)N[C@@H](CC(N)=O)C(=O)N[C@@H](CC(C)C)C(=O)N[C@H](C(=O)N1CCC[C@H]1C(=O)N[C@@H](CCCNC(=N)N)C(=O)N[C@H](C(=O)N[C@@H](CCC(=O)O)C(=O)N[C@@H](CO)C(=O)O)[C@@H](C)O)C(C)C)[C@@H](C)CC)C(C)C)[C@@H](C)CC [LL-37] | – | – | – | – | – | – | – | – | – | – | completely lost their antimicrobial activities
8 | N=C(N)NCCC[C@H](NC(=O)[C@H](Cc1c[nH]c2ccccc12)NC(=O)[C@@H](N)CCCNC(=N)N)C(N)=O [RWR-NH2, reference compound] (H-Arg-Trp-Arg-NH2) | – | >64 (>124) µg/mL | – | >64 (>124) µg/mL | >64 (>124) µg/mL | >64 (>124) µg/mL | – | – | – | >64 (>124) µg/mL | –
9 | WRWRWR-NH2 [(WR)3-NH2, reference compound] | – | 9 (8.6) µg/mL | 56.9 | 16 (15.3) µg/mL | 4 (3.8) µg/mL | 8 (7.7) µg/mL | – | – | – | 8 (7.7) µg/mL | –
